From patent publication EP0332387B1, “Triazole derivatives, their preparation and their use as fungicides” (Sankyo Company Limited, priority 1988, dated 1989)

Columns and labels:
Type in all cases: in vivo
Pyricularia oryzae = settings: rice seedlings (variety Sachikaze), sprayed 24 hours after inoculation at 10 ppm (30 ml/3 pots), further 6 days; number of lesions on the upper two leaves
Rhizoctonia solani [1] = assay: Preventive activity against sheath blight of rice plants (Experiment 2); set-up: key: 0 = disease as untreated, 5 = no disease (complete control); settings: rice seedlings (variety Nihonbare), sprayed at 100 ppm (30 ml/3 pots) 24 hours before inoculation, 5 days; height of the lesions
Protocol: Rice seedlings (variety Nihonbare) at the 4 - 5 leaf stage were sprayed with an aqueous suspension of the test compound at a concentration of 100 ppm (30 ml/3 pots). The seedlings were then kept for 24 hours at room temperature, after which they were inoculated with the fungus, Rhizoctonia solani, by placing 4 - 5 oat grains on which the fungus had previously been cultured around the base of each seedling. The seedlings were then kept in a moist chamber for 5 days at 25 - 27 °C. The disease controlling index was given on the basis of the height of the lesions formed on the rice seedlings.
Except in Table 12G, the compounds tested have the formula (1-1), in which Ar represents the group shown at the beginning of each part of the Table and R^1, R^2, X and Y are as defined in the Table.
(§1) The disease controlling index shown in the foregoing Tables 11 to 19 is indicated by the following codes: • 5--no disease (complete control) • 4--disease rate is less than 10% of the untreated plant • 3--disease rate is 10% - 30% of the untreated plant • 2--disease rate is 30% - 50% of the untreated plant • 1--disease rate is 50% - 70% of the untreated plant • 0--disease rate is almost same as the untreated plant.

[2] = tested on: Erysiphe graminis f.sp. hordei; assay: Curative activity against powdery mildew of barley (Experiment 7); settings: barley seedlings (variety Sekishinriki), sprayed one day after inoculation at 3 ppm (30 ml/3 pots), further 10 days; diseased area on the first leaf
Protocol: Barley seedlings (variety […]) at the first leaf stage were inoculated with conidia of Erysiphe graminis f.sp. hordei and kept in a greenhouse at 15 - 20°C. After one day, the seedlings were sprayed with an aqueous suspension of the test compound at a concentration of 3 ppm (30 ml/3 pots), and they continued to be kept in the greenhouse at that temperature for a further 10 days. The disease controlling index was given on the basis of the diseased area on the first leaf.

Puccinia recondita = assay: Curative activity against leaf rust of wheat (Experiment 6); settings: wheat seedlings (variety Norin No 61), sprayed after inoculation at 3 ppm (30 ml/3 pots), 10 days; diseased area on the first leaf
Protocol: Wheat seedlings (variety Norin No 61) at the first leaf stage were inoculated with the fungus, Puccinia recondita, by spraying them with a spore suspension of the fungus. They were then kept in a moist chamber for 24 hours at 20 - 22 °C, after which they were moved to a greenhouse at 15 - 20 °C. […] The seedlings were then continuously kept in the greenhouse for 10 days. The disease controlling index was given on the basis of diseased area on the first leaf.

Rhizoctonia solani [3] = assay: Curative activity against sheath blight of rice plants (Experiment 3); set-up: key: 0 = disease as untreated, 5 = no disease (complete control); settings: rice seedlings (variety Nihonbare), sprayed 24 hours after inoculation at 10 ppm (30 ml/3 pots), further 5 days; height of the lesions
Protocol: Rice seedlings (variety Nihonbare) at the 4 - 5 leaf stage were inoculated with the fungus, Rhizoctonia solani, by placing 4 - 5 oat grains on which the fungus had previously been cultured around the base of each rice seedling and keeping them in a moist chamber at 25 - 27 °C. After 24 hours, the rice seedlings were sprayed with an aqueous suspension of the test compound at a concentration of 10 ppm (30 ml/3 pots) and they then continued to be kept in the moist chamber for a further 5 days. The disease controlling index was given on the basis of the height of the lesions formed on the rice seedlings.
(§2) The compounds tested have the formula (1-1), in which Ar represents the group shown at the beginning of each part of the Table and R^1, R^2, X and Y are as defined in the Table.
as §1

Sphaerotheca fuliginea = assay: Preventive activity against powdery mildew of cucumber (Experiment 8); settings: cucumber seedlings sprayed at 300 ppm, inoculated after 24 hours, evaluated after 7 days in greenhouse; diseased area on third and fourth leaves
Protocol: Cucumber seedlings (variety Sagamihanpaku) at the 3 - 4 leaf stage were sprayed with an aqueous suspension of the test compound at a concentration of 300 ppm (30 ml/3 pots). The seedlings were then kept for 24 hours at room temperature, after which they were inoculated with conidida of Sphaerotheca fuliginea. After keeping the seedlings in a greenhouse for 7 days, the disease controlling index was evaluated on the basis of the diseased area on the third and fourth leaves.

Gibberella Fujikuroi = assay: Activity against bakanae disease of rice plants by seed soaking (Experiment 5); set-up: key: 0 = disease as untreated, 5 = no disease (complete control); settings: infected rice seeds (variety Tanginbozu) immersed 3 days in aqueous suspension (concentration not given), 3 weeks; number of diseased seedlings
Protocol: Ten grams of rice seeds (variety Tanginbozu), infected with Gibberella Fujikuroi, were immersed in 20 ml of an aqueous suspension of the test compound for 3 days. At the end of this time, the treated seeds were densely sown in soil in pots, and the pots were placed in a greenhouse at 20 - 30 °C for 3 weeks. The disease controlling index was given on the basis of the number of diseased seedlings.
as §2, §1

Venturia inaequalis = assay: Preventive activity against apple scab (Experiment 9); settings: for Index (disease controlling index): apple seedlings sprayed at 300 ppm, inoculated after 24 hours, 3 days moist chamber then 10 days greenhouse, diseased area on third and fourth leaves
Protocol: Apple seedlings at the 3 - 4 leaf stage were sprayed with an aqueous suspension of the test compound at a concentration of 300 ppm (30 ml/3 pots). The seedlings were then kept for 24 hours at room temperature, after which they were inoculated with the fungus, Venturia inaequalis, by spraying a spore suspension of the fungus over the seedlings. After inoculation, the seedlings were kept in a moist chamber for 3 days at 20 - 22 °C and then moved to a greenhouse at 20 - 22°C for 10 days. The disease controlling index was given on the basis of the diseased area on the third and fourth leaves.

Rhizoctonia solani [4] = assay: Preventive activity against sheath blight of rice plants by submerged application (Experiment 4); settings: rice seedlings (variety Nihonbare), applied to the water in the pots, 100 g per 10 ares, inoculated after 7 days, 5 days; height of the lesions
From the text: Rice seedlings (variety Nihonbare) at the 4 - 5 leaf stage grown in pots were flooded to a depth of 1 cm with water. The test compound was then applied to the water in the pots in an amount corresponding to 100 g per 10 ares. After keeping the seedlings in a greenhouse for 7 days, the water was drained from the pots and the seedlings were inoculated with the fungus, Rhizoctonia solani, by placing 4 - 5 oat grains on which the fungus had previously been cultured around the base of each seedling. The seedlings were then kept in a moist chamber for 5 days at 25 - 27 °C. The disease controlling index was given on the basis of the height of the lesions formed on the rice seedlings.
Except for Table 14F, the compounds tested have the formula (1-1), in which Ar represents the group shown at the beginning of each part of the Table and R^1, R^2, X and Y are as defined in the Table.
as §1

Compound | disease controlling index (Pyricularia oryzae) | disease controlling index (Rhizoctonia solani [1]) | disease controlling index [2] | disease controlling index (Puccinia recondita) | disease controlling index (Rhizoctonia solani [3]) | Index (disease controlling index) (Sphaerotheca fuliginea) | disease controlling index (Gibberella Fujikuroi) | Index (disease controlling index) (Venturia inaequalis) | disease controlling index (Rhizoctonia solani [4]) | disease controlling index (Venturia inaequalis; apple seedlings, sprayed at 300 ppm (30 ml/3 pots) 24 hours before inoculation, diseased area on the third and fourth leaves)
CC[C@@H](OC1CCCCO1)[C@](O)(Cn1cncn1)c1ccc(F)cc1F (relative stereo) [Example 202, (2R^*, 3R*)-2-(2,4-Difluorophenyl)-3-tetrahydropyranyloxy)-1-(1H-1,2,4-triazol-1-yl)-2-pentanol] | 4 (disease rate is less than 10% of the untreated plant) | 4 (disease rate is less than 10% of the untreated plant) | 5 | 5 | 4 (disease rate is less than 10% of the untreated plant) | – | – | – | – | –
C[C@@H](NC(=O)c1ccc(F)cc1)[C@](O)(Cn1cncn1)c1ccc(F)cc1F (relative stereo) [Example 15, (2R*, 3R*)-2-(2,4-Difluorophenyl)-3-(4-fluorobenzoylamino)-1-(1H-1,2,4-triazol-1-yl)-2-butanol] | – | – | 5 | 5 | – | 5 | 4 (disease rate is less than 10% of the untreated plant) | – | – | –
C[C@@H](NC(=O)c1ccc(C(F)(F)F)cc1)[C@](O)(Cn1cncn1)c1ccc(Cl)cc1Cl [Example 13, (2R, 3R)-2-(2,4-Dichlorophenyl)-3-(4-trifluoromethylbenzoylamino)-1-(1H-1,2,4-triazol-1-yl)-2-butanol] | 5 | 4 (disease rate is less than 10% of the untreated plant) | 5 | 5 | – | 5 | 5 | – | – | –
C[C@@H](NC(=O)c1ccc(Cl)cc1Cl)[C@](O)(Cn1cncn1)c1ccc(Cl)cc1Cl (relative stereo) [Example 11, (2R*, 3R*)-3-(2,4-Dichlorobenzoylamino)-2-(2,4-dichlorophenyl)-1-(1H-1,2,4-triazol-1-yl)-2-butanol] | – | 4 (disease rate is less than 10% of the untreated plant) | – | – | – | 5 | 4 (disease rate is less than 10% of the untreated plant) | 5 | – | –
C[C@@H](NC(=O)c1ccc(F)cc1)[C@](O)(Cn1cncn1)c1ccc(Cl)cc1Cl (relative stereo) [Example 4, (2R*, 3R*)-2-(2,4-Dichlorophenyl)-3-(4-fluorobenzoylamino)-1-(1 H-1 ,2,4-triazol-1-yl)-2-butanol] | – | 4 (disease rate is less than 10% of the untreated plant) | 5 | 5 | – | – | – | 5 | – | –
C[C@@H](CN=[N+]=[N-])[C@](O)(Cn1cncn1)c1ccc(Cl)cc1Cl (relative stereo) [Example 90, (2R*, 3S*)-4-Azido-2-(2,4-dichlorophenyl)-3-methyl-1-(1H-1,2,4-triazol-1-yl)-2-butanol] | 5 | 5 | – | – | – | – | 5 | – | 5 | –
C[C@@H](N1C(=O)c2ccc(Cl)cc2C1=O)[C@](O)(Cn1cncn1)c1ccc(F)cc1F (relative stereo) [Example 135, (2R*, 3R*)-2-(2,4-Difluorophenyl)-3-(4-chlorophthalimido)-1-(1H-1,2,4-triazol-1-yl)-2-butanol] | 4 (disease rate is less than 10% of the untreated plant) | – | 5 | 5 | – | 5 | 4 (disease rate is less than 10% of the untreated plant) | – | – | –
O=C(NCC(O)(Cn1cncn1)c1ccc(Cl)cc1Cl)c1ccc(Cl)cc1 (stereo not shown) [Compound X, 3-(4-chlorobenzoylamino)-2-(2,4-dichlorophenyl)-1-(1H-1,2,4-triaiol-1-yl)-2-propanol, reference compound] | 0 | – | – | – | 0 | – | – | – | 0 | –
C[C@@H](N=[N+]=[N-])[C@](O)(Cn1cncn1)c1ccc(Cl)cc1 (relative stereo) [Example 63, (2R*, 3R*)-3-Azido-2-(4-chlorophenyl)-1-(1H-1,2,4-triazol-1-yl)-2-butanol] | – | – | – | – | – | – | 5 | – | – | –
C[C@@H](NC(=O)c1ccc(Cl)cc1)[C@](O)(Cn1cncn1)c1ccc(F)cc1F (relative stereo) [Example 16, (2R*, 3R*)-3-(4-Chlorobenzoylamino)-2-(2,4-difluorophenyl)-1-(1 H-1 ,2,4-triazol-1-yl)-2-butanol] | 5 | 5 | 5 | 5 | 5 | 5 | 4 (disease rate is less than 10% of the untreated plant) | – | – | 5
C[C@@H](NC(=O)c1ccc(C(F)(F)F)cc1)[C@](O)(Cn1cncn1)c1ccc(Cl)cc1Cl (relative stereo) [Example 12, (2R*, 3R*)-2-(2,4-Dichlorophenyl)-1-(1H-1,2,4-triazol-1-yl)-3-(4-trifluoromethylbenzoylamino)-2-butanol] | 5 | 5 | 5 | 5 | 5 | 5 | 4 (disease rate is less than 10% of the untreated plant) | 5 | – | –
